Where two headings read alike, the source gives them in different places.
Biological target: human α5β3γ2 receptors (α5-GABAA receptor) (Homo sapiens (Human), UniProt P18507+P31644)
Assay: 3H-flunitrazepam competition binding, human α5β3γ2 GABAA receptor
Conditions: HEK293 cell membranes, 1 nM 3H-flunitrazepam
Experimental: The affinity of the compound to each subtype of GABAA receptor was determined by competing for the binding of ^3H-flunitrazepam to HEK293 cells stably expressing human α1β3γ2, α2β3γ2, α3β3γ2, and α5β3γ2 receptors.
The cells were suspended in 50 mM Tris-HCl buffer (pH=7.4), homogenized 10 times on ice with a homogenizer for 20 seconds, and centrifuged at 1000 g for 10 minutes at 4° C. The supernatant was collected, and the above steps were repeated. The supernatant was centrifuged at 4° C. (33800 g; Thermo, rotor: A27-8×50) for 60 minutes, and the precipitate was resuspended in Tris buffer (50 mM Tris-HCl, 10 mM MgCl2, 0.5 mM EDTA, 10% glycerol). Protein was measured (BCA method, Pierce), and 1 mL aliquots were prepared and stored at −80° C.
The radioligand competition binding assay was performed in a 200 μL system (96-well plate) containing 100 μL of cell membrane. The concentration of ^3H-flunitrazepam was 1 nM and the concentration of the test compound was in the range of […]. Flumazenil was used as a control. 1 μL of 2 mM flumazenil (final concentration […]) was added to the low signal control well (Low control, LC), and 1 μL of DMSO was added to the high signal control well (High control, HC). The final concentration of target membrane protein was […]. All test compound sample storage solutions were 10 mM. The working concentration of the samples was to dilute all the samples to 0.2 mM with DMSO, followed by 4-fold serial gradient dilutions for a total of 8 concentration gradients. The 96-well plate was sealed with a sealing film, and then incubated on a shaker at room temperature for 1 hour. At the same time, the GF/C filter plate was soaked in soaking buffer (0.3% PEI, stored at 4° C.) for at least 0.5 hours. After the binding incubation was completed, the cells were collected onto a GF/C filter plate using a cell harvester. The plate was washed four times with washing buffer (50 mM Tris-HCl, pH 7.4, stored at 4° C.). After drying in a 50° C. oven for 1 hour, the bottom of the dried GF/C filter plate was sealed. The residual radioactivity on the filter membrane was detected using liquid scintillation counting. 50 μL of scintillation fluid was added to each well, and the plate was sealed. The readings were taken using a Microbeta2. The inhibitory activity of the test sample on the binding of ^3H-flunitrazepam to GABAA receptor membrane proteins was calculated, and the IC50 of each test sample was calculated by dose-effect curve fitting (GraphPad Prism 5 software), and the Ki of the sample was calculated from the IC50, thus evaluating the binding ability of the sample to the various subtypes of GABAA receptors.

SMILES | Ki (read-out: α5-GABAAR Ki) | Ki (α5-GABAAR Ki)
Cc1nnn(-c2ccc(CO)cc2)c1COc1ccc(N2CCNC(=O)C2)nn1 [Example 79, 4-(6-((1-(4-(hydroxymethyl)phenyl)-4-methyl-1H-1,2,3-triazol-5-yl)methoxy)pyridazin-3-yl)piperazin-2-one] | 32.5 nM | –
Cc1cc(N2CCNC(=O)C2)nnc1OCc1c(C)nnn1-c1ccc(C(F)F)cc1 [Example 81, 4-(6-((1-(4-(Difluoromethyl)phenyl)-4-methyl-1H-1,2,3-triazol-5-yl)methoxy)-5-methylpyridazin-3-yl)piperazin-2-one] | 0.56 nM | –
Cc1cc(OCc2c(C)nnn2-c2ccc(C(F)F)cc2)nnc1N1CCNC(=O)C1 [Example 82, 4-(6-((1-(4-(Difluoromethyl)phenyl)-4-methyl-1H-1,2,3-triazol-5-yl)methoxy)-4-methylpyridazin-3-yl)piperazin-2-one] | 0.63 nM | –
O=C1CN(c2ccc(OCc3c(C4CC4)nnn3-c3ccc(C(F)F)cc3)nn2)CCN1 [Example 83, 4-(6-((4-Cyclopropyl-1-(4-(difluoromethyl)phenyl)-1H-1,2,3-triazol-5-yl)methoxy)pyridazin-3-yl)piperazin-2-one] | 2.6 nM | –
Cc1nnn(-c2ccc(C(F)F)cc2)c1COc1ccc(N2CCn3cnnc3C2)nn1 [Example 84, 7-(6-((1-(4-(Difluoromethyl)phenyl)-4-methyl-1H-1,2,3-triazol-5-yl)methoxy)pyridazin-3-yl)-5,6,7,8-tetrahydro-[1,2,4]triazolo[4,3-a]pyrazine] | 0.6 nM | –
Cc1nnn(-c2ccc(C(F)F)cc2)c1COc1ccc(N2CCCC3(COC3)C2)nn1 [Example 85, 6-(6-((1-(4-(Difluoromethyl)phenyl)-4-methyl-1H-1,2,3-triazol-5-yl)methoxy)pyridazin-3-yl)-2-oxa-6-azaspiro[3.5]nonane] | 2.24 nM | –
Cc1nnn(-c2ccc(C(F)F)cc2)c1COc1ccc(N2CC3(CCNC3=O)C2)nn1 [Example 86, 2-(6-((1-(4-(Difluoromethyl)phenyl)-4-methyl-1H-1,2,3-triazol-5-yl)methoxy)pyridazin-3-yl)-2,6-diazaspiro[3.4]octan-5-one] | 8.31 nM | –
Cc1nnn(-c2ccc(C(F)F)cc2)c1COc1ccc(N2CC3(CNC(=O)C3)C2)nn1 [Example 87, 2-(6-((1-(4-(Difluoromethyl)phenyl)-4-methyl-1H-1,2,3-triazol-5-yl)methoxy)pyridazin-3-yl)-2,6-diazaspiro[3.4]octan-7-one] | 3.46 nM | –
CC(=O)NC1CCN(c2ccc(OCc3c(C)nnn3-c3ccc(C(F)F)cc3)nn2)C1 (stereo not shown) [Example 88, N-(1-(6-((1-(4-(Difluoromethyl)phenyl)-4-methyl-1H-1,2,3-triazol-5-yl)methoxy)pyridazin-3-yl)pyrrolidin-3-yl)acetamide] | 1.78 nM | –
Cc1nnn(-c2ccc(C(F)F)cc2)c1COc1ccc(N2CC(=O)N3CCN(CC(F)(F)F)CC3C2)nn1 (stereo not shown) [Example 91, 2-(6-((1-(4-(Difluoromethyl)phenyl)-4-methyl-1H-1,2,3-triazol-5-yl)methoxy)pyridazin-3-yl)-8-(2,2,2-trifluoroethyl)octahydro-4H-pyrazino[1,2-a]pyrazin-4-one] | 1.13 nM | –
Cc1nnn(-c2ccc(C(F)F)cc2)c1COc1ccc(N2CCN(Cc3ncccn3)C(=O)C2)nn1 [Example 93, 4-(6-((1-(4-(Difluoromethyl)phenyl)-4-methyl-1H-1,2,3-triazol-5-yl)methoxy)pyridazin-3-yl)-1-(pyrimidin-2-ylmethyl)piperazin-2-one] | 3.14 nM | –
Cc1nnn(-c2ccc(F)cc2)c1COc1ccc(N2CCN(CC(F)(F)F)C(=O)C2)nn1 [Example 94, 4-(6-((1-(4-Fluorophenyl)-4-methyl-1H-1,2,3-triazol-5-yl)methoxy)pyridazin-3-yl)-1-(2,2,2-trifluoroethyl)piperazin-2-one] | 44.3 nM | –
Cc1nnn(-c2ccc(C(F)F)cc2)c1COc1ccc(N2CC(C(=O)Nc3ccnn3C)C2)nn1 [Example 102, 1-(6-((1-(4-(Difluoromethyl)phenyl)-4-methyl-1H-1,2,3-triazol-5-yl)methoxy)pyridazin-3-yl)-N-(1-methyl-1H-pyrazol-5-yl)azetidine-3-carboxamide] | 2.14 nM | –
Cc1nnn(-c2ccc(C(F)F)cc2)c1COc1ccc(N2CCOC3(CCS(=O)(=O)C3)C2)nn1 (stereo not shown) [Example 105, 9-(6-((1-(4-(Difluoromethyl)phenyl)-4-methyl-1H-1,2,3-triazol-5-yl)methoxy)pyridazin-3-yl)-6-oxa-2-thia-9-azaspiro[4.5]decane 2,2-dioxide] | 1.24 nM | –
Cc1nnn(-c2ccc(C(F)F)cc2)c1COc1ccc(N2CCCN(S(C)(=O)=O)CC2)nn1 [Example 106, 1-(6-((1-(4-(Difluoromethyl)phenyl)-4-methyl-1H-1,2,3-triazol-5-yl)methoxy)pyridazin-3-yl)-4-(methylsulfonyl)-1,4-diazepane] | 7.39 nM | –
Cc1nnn(-c2ccc(C(F)F)cc2)c1COc1ccc(N2CCN(CCN3CCC(F)(F)CC3)C(=O)C2)nn1 [Example 109, 4-(6-((1-(4-(Difluoromethyl)phenyl)-4-methyl-1H-1,2,3-triazol-5-yl)methoxy)pyridazin-3-yl)-1-(2-(4,4-difluoropiperidin-1-yl)ethyl)piperazin-2-one] | 1.53 nM | –
Cc1nnn(-c2ccc(C(F)F)cc2)c1COc1ccc(N2CCN(c3cnn(C)c3)C(=O)C2)nn1 [Example 111, 4-(6-((1-(4-(Difluoromethyl)phenyl)-4-methyl-1H-1,2,3-triazol-5-yl)methoxy)pyridazin-3-yl)-1-(1-methyl-1H-pyrazol-4-yl)piperazin-2-one] | 0.93 nM | –
Cc1nnn(-c2ccc(C(F)F)cc2)c1COc1ccc(N2CCN(c3ccn(C)n3)C(=O)C2)nn1 [Example 112, 4-(6-((1-(4-(Difluoromethyl)phenyl)-4-methyl-1H-1,2,3-triazol-5-yl)methoxy)pyridazin-3-yl)-1-(1-methyl-1H-pyrazol-3-yl)piperazin-2-one] | 0.81 nM | –
Cc1nnn(-c2ccc(C(F)F)cc2)c1COc1ccc(N2CCN(c3cnn(C(F)F)c3)C(=O)C2)nn1 [Example 113, 1-(1-(Difluoromethyl)-1H-pyrazol-4-yl)-4-(6-((1-(4-(difluoromethyl)phenyl)-4-methyl-1H-1,2,3-triazol-5-yl)methoxy)pyridazin-3-yl)piperazin-2-one] | 1.17 nM | –
CCNC(=O)C12CC(CN1c1ccc(OCc3c(C)nnn3-c3ccc(C(F)F)cc3)nn1)C2 [Example 115, 2-(6-((1-(4-(Difluoromethyl)phenyl)-4-methyl-1H-1,2,3-triazol-5-yl)methoxy)pyridazin-3-yl)-N-ethyl-2-azabicyclo[2.1.1]hexane-1-carboxamide] | 1.25 nM | –
Cc1nnn(-c2ccc(C(F)F)cc2)c1COc1ccc(N2CCN3CC(=O)NC(=O)[C@@H]3C2)nn1 [Example 117, (S)-8-(6-((1-(4-(Difluoromethyl)phenyl)-4-methyl-1H-1,2,3-triazol-5-yl)methoxy)pyridazin-3-yl)hexahydro-1H-pyrazino[1,2-a]pyrazin-1,3-(2H)-dione] | 4.87 nM | –
Cc1nnn(-c2ccc(C(F)F)cc2)c1COc1ccc(N2CCN3C(=O)NC(=O)[C@@H]3C2)nn1 [Example 118, (S)-7-(6-((1-(4-(Difluoromethyl)phenyl)-4-methyl-1H-1,2,3-triazol-5-yl)methoxy)pyridazin-3-yl)tetrahydroimidazo[1,5-a]pyrazine-1,3(2H,5H)-dione] | 1.66 nM | –
Cc1nnn(-c2ccc(C(F)F)cc2)c1COc1ccc(N2CCN3CCCNC(=O)[C@@H]3C2)nn1 [Example 120, (S)-2-(6-((1-(4-(Difluoromethyl)phenyl)-4-methyl-1H-1,2,3-triazol-5-yl)methoxy)pyridazin-3-yl)octahydropyrazino[1,2-a][1,4]diaza-10(2H)-one] | 27.2 nM | –
CCNC(=O)C12CC(CN(c3ccc(OCc4c(C)nnn4-c4ccc(C(F)F)cc4)nn3)C1)C2 [Example 121, 3-(6-((1-(4-(Difluoromethyl)phenyl)-4-methyl-1H-1,2,3-triazol-5-yl)methoxy)pyridazin-3-yl)-N-ethyl-3-azabicyclo[3.1.1]heptane-1-carboxamide] | – | 1.73 nM
Cc1nnn(-c2ccc(F)cc2)c1COc1ccc(N2CCN3CCOC[C@@H]3C2)nn1 [Example 126, (S)-8-(6-((1-(4-Fluorophenyl)-4-methyl-1H-1,2,3-triazol-5-yl)methoxy)pyridazin-3-yl)octahydropyrazino[2,1-c][1,4]oxazine] | 40.1 nM | –

Source: patent US20250136581A1, “SUBSTITUTED TRIAZOLE DERIVATIVE, PREPARATION METHOD THEREFOR, PHARMACEUTICAL COMPOSITION THEREOF, AND USE THEREOF” (SHANGHAI SIMR BIOTECHNOLOGY CO., LTD., priority 2021, published 2025)
